Assay [1] has as its target T1, Kv1.1 (Homo sapiens, UniProt Q09470).
T1 construct: expressed in transfected cells; host or cells: Chinese Hamster Ovary (CHO)
In words: cell-based. As to conditions: for IC50: CHO cells, whole-cell patch clamp, read-out: Potency IC50 (nM) Kv1.1; for Selectivity Kv1.1/Kv1.3: ratio IC50[Kv1.1]/IC50[Kv1.3].

The target in assay [2] is T2, Kv1.2 (Homo sapiens, UniProt P16389).
T2 construct: expressed in transfected cells; host or cells: Chinese Hamster Ovary (CHO)
In words: cell-based. As to conditions: for IC50: CHO cells, whole-cell patch clamp, read-out: Potency IC50 (nM) Kv1.2. (The patch-clamp technique gives a direct electrical read-out from membranes.)

Assay [3] addresses T3, Kv1.6 (Homo sapiens, UniProt P17658).
T3 construct: expressed in transfected cells; host or cells: Chinese Hamster Ovary (CHO)
Put plainly: cell-based. As to conditions: for IC50: CHO cells, whole-cell patch clamp, read-out: Potency IC50 (nM) Kv1.6; for Selectivity Kv1.6/Kv1.3: ratio IC50[Kv1.6]/IC50[Kv1.3].

The target of assay [4] is T4, Kv1.3 (Homo sapiens, UniProt P22001).
T4 construct: expressed in transfected cells; host or cells: Chinese Hamster Ovary (CHO)
T4 sequence (P22001 whole entry): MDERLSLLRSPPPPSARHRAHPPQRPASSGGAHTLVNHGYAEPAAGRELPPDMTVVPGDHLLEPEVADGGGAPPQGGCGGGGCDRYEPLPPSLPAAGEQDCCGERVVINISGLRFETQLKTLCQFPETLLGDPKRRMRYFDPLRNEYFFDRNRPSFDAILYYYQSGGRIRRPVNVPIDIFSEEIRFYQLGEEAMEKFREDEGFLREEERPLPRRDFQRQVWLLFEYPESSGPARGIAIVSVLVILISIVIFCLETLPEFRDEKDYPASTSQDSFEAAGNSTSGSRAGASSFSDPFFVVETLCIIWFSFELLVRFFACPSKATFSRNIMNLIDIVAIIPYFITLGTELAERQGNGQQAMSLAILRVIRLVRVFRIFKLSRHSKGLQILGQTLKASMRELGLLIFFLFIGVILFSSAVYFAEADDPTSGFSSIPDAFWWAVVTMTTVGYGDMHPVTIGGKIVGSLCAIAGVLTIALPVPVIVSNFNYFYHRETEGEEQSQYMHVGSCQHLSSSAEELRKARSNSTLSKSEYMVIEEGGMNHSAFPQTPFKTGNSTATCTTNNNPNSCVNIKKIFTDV
In words: cell-based. As to conditions: CHO cells, whole-cell patch clamp; read-out: Potency IC50 (nM) Kv1.3.

The target in assay [5] is T5, human Kv1.3 voltage-gated K+ channel (Homo sapiens, UniProt P22001).
T5 construct: host or cells: CHO-DUKX
T5 sequence (P22001 whole entry): as above
In words: cell-based. The settings on record: inhibition of thallium flux, CHO-DUKX cells with human Kv1.3; read-out: IC50.

Assay [6] has as its target Rat whole blood (Rattus norvegicus, UniProt P15384).

Bridge positions count the residues as written; N and C are the ends. Square brackets hold non-standard residues; d marks the D form. Peptide text beside a SMILES is read from it. Nle = CCCC[C@H](N)C(=O)O

By IC50 is commonly meant the concentration at which inhibition is half-maximal.

T1 sequence (Q09470 whole entry): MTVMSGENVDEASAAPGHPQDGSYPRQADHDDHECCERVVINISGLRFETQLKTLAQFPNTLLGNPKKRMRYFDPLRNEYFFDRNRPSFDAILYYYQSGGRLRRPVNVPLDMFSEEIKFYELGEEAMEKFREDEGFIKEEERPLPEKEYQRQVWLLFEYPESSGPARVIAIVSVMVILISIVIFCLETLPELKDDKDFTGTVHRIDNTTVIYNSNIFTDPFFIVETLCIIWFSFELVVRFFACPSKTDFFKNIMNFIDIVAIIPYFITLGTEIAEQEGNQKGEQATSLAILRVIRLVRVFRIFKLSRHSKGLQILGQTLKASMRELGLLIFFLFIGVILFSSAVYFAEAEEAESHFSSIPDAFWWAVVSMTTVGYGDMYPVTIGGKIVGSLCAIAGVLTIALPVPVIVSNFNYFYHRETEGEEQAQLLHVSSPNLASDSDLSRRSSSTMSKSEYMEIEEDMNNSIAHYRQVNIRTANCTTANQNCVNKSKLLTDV
T3 sequence (P17658 whole entry): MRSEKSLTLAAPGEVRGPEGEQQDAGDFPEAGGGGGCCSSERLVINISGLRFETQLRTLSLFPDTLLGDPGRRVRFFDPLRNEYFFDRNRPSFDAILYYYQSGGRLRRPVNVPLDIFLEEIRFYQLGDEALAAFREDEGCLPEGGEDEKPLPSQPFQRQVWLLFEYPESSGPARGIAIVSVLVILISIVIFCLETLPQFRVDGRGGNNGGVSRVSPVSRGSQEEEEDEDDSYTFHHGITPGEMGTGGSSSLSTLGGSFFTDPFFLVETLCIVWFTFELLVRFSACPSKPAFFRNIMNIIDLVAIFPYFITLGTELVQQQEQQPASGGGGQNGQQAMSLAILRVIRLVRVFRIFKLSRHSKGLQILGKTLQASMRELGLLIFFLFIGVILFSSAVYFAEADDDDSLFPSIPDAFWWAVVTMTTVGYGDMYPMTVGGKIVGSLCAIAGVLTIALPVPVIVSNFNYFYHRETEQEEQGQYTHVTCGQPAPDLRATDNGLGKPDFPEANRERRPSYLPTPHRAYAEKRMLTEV
Chain of Rat whole blood (P15384 whole entry): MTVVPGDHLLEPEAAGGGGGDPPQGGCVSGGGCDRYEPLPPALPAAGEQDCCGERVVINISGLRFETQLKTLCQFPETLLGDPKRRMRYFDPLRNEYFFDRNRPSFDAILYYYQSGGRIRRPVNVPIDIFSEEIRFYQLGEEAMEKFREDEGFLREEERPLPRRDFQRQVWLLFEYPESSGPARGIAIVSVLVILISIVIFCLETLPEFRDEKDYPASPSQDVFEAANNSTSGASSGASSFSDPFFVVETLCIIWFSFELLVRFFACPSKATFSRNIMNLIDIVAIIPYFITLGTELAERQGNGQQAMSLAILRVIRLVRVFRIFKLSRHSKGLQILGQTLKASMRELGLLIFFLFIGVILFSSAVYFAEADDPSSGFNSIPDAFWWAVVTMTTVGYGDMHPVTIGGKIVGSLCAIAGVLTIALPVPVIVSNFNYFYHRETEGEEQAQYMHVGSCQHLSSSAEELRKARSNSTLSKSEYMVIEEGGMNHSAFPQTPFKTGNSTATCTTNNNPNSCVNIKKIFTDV
T2 sequence (P16389 whole entry): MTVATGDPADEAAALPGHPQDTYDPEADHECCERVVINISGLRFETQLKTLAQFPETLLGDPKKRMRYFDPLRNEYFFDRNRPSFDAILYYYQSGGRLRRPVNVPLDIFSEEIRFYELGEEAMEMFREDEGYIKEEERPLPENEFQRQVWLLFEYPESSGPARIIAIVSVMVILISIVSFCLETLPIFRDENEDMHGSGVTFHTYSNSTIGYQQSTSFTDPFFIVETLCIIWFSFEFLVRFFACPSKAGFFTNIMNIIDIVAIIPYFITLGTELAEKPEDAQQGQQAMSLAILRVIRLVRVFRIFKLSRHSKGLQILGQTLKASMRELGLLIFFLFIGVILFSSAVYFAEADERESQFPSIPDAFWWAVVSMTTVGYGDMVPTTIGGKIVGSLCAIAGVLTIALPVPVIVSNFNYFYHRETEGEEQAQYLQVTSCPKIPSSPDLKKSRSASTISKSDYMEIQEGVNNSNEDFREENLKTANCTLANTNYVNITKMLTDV

Take `CC[C@H](C)[C@@H]1NC(=O)[C@H](C)NC(=O)[C@H](CCCCN)NC(=O)[C@H](CC(C)C)NC(=O)[C@@H]2CSSC[C@@H](C(=O)N[C@@H](Cc3ccc(O)cc3)C(=O)N3CCC[C@H]3C(=O)N[C@@H](CCCNC(=N)N)C(N)=O)NC(=O)[C@H](CCCCN)NC(=O)[C@@H]3CSSC[C@H](NC(=O)[C@H](CCC(=O)O)NC(=O)[C@H](C(C)C)NC(=O)[C@H](CO)NC(=O)[C@H](C)NC(=O)[C@H](CCCCN)NC(=O)[C@@H](NC(=O)[C@H](CCCNC(=N)N)NC(=O)[C@H](CCSC)NC(=O)[C@H](CC(=O)O)NC(=O)[C@H](CCSC)NC(=O)[C@@H](N)CC(N)=O)CSSC[C@H](NC(=O)[C@H](CCCCN)NC(=O)CNC(=O)[C@H](Cc4ccccc4)NC(=O)[C@H]([C@@H](C)CC)NC(=O)[C@H](CO)NC(=O)CNC1=O)C(=O)N[C@@H](CCSC)C(=O)N[C@@H](CC(N)=O)C(=O)N[C@@H](CCCCN)C(=O)N[C@@H](CCCCN)C(=O)N3)C(=O)N[C@@H](CCCCN)C(=O)N[C@@H](CCC(N)=O)C(=O)N[C@@H](CCCCN)C(=O)N2` [Compound 25] (H-NMDMRCKASVECKQKCLKAIGSIFGKCMNKKCKCYPR-NH2; disulfide 6-27, 12-32, 16-34): the IC50 was over 3000 nM in assay [1]; 67 nM in assay [2]; 363 nM in assay [3]; 0.09 nM in assay [4]; 0.085 nM in assay [5]. Besides, in assay [1], the “Selectivity Kv1.1/Kv1.3” value is on record as over 34200.
Consider `CC[C@H](C)[C@H](NC(=O)[C@H](C)NC(=O)[C@H](C)NC(=O)[C@H](C)N)C(=O)N[C@@H](CO)C(=O)N[C@H]1CSSC[C@@H]2NC(=O)[C@H](CCCCN)NC(=O)CNC(=O)[C@H](CC(N)=O)NC(=O)[C@H](CCCCN)NC(=O)[C@@H]3CSSC[C@@H](C(N)=O)NC(=O)[C@H](Cc4ccc(O)cc4)NC(=O)[C@H](Cc4ccc(O)cc4)NC(=O)[C@@H]4CSSC[C@H](NC(=O)[C@H](CCCCN)NC(=O)[C@@H]5CCCN5C(=O)[C@@H]5CCCN5C(=O)[C@H](CSSC[C@H](NC(=O)[C@H](CCCCN)NC(=O)[C@H](CCCNC(=N)N)NC(=O)[C@H](CC(N)=O)NC(=O)[C@H](CCSC)NC2=O)C(=O)N[C@@H](CCCCN)C(=O)N4)NC(=O)[C@H](CCC(=O)O)NC(=O)[C@@H]2CCCN2C(=O)[C@H](CO)NC(=O)CNC(=O)[C@H](C(C)C)NC1=O)C(=O)N[C@@H](CCCNC(=N)N)C(=O)N[C@@H](C)C(=O)N[C@@H](CCC(N)=O)C(=O)NCC(=O)N3` [Vm24, reference compound], for which the IC50 is 0.097 nM in assay [1], 4.7 nM in assay [2], 21 nM in assay [3] and 0.15 nM in assay [4]. Moreover, the “Selectivity Kv1.1/Kv1.3” value in assay [1] is on record as 0.65. In addition, the “Selectivity Kv1.2/Kv1.3” value in assay [2] (ratio IC50[Kv1.2]/IC50[Kv1.3]) came to 31. For the same compound, the “Selectivity Kv1.6/Kv1.3” value in assay [3] is 139.
Turning to `CC[C@H](C)[C@@H]1NC(=O)[C@H](CO)NC(=O)CNC(=O)[C@H](Cc2ccc(O)cc2)NC(=O)[C@H](C)NC(=O)[C@H](CCCCN)NC(=O)[C@H](CC(C)C)NC(=O)[C@@H]2CSSC[C@@H](C(=O)N[C@@H](Cc3ccc(O)cc3)C(=O)N3CCC[C@H]3C(=O)N[C@@H](CCCNC(=N)N)C(N)=O)NC(=O)[C@H](CCCCN)NC(=O)[C@@H]3CSSC[C@H](NC(=O)[C@H](CCC(=O)O)NC(=O)[C@H](C(C)C)NC(=O)[C@H](CO)NC(=O)[C@H](C)NC(=O)[C@H](CO)NC(=O)[C@@H](NC(=O)[C@H](CCCNC(=N)N)NC(=O)[C@H](CCSC)NC(=O)[C@H](CC(=O)O)NC(=O)[C@H](CCSC)NC(=O)[C@@H](N)CC(N)=O)CSSC[C@H](NC(=O)[C@H](CCCCN)NC(=O)CNC(=O)[C@H](Cc4ccccc4)NC1=O)C(=O)N[C@@H](CCSC)C(=O)N[C@@H](CC(N)=O)C(=O)N[C@@H](CCCCN)C(=O)N[C@@H](CCCCN)C(=O)N3)C(=O)N[C@@H](CCCCN)C(=O)N[C@@H](CCC(N)=O)C(=O)N[C@@H](CCCCN)C(=O)N2` [Compound 58] (H-NMDMRCSASVECKQKCLKAYGSIFGKCMNKKCKCYPR-NH2; disulfide 6-27, 12-32, 16-34), the IC50 in assay [1] is over 3000 nM; in assay [2], 145 nM; in assay [3], over 3000 nM; in assay [4], 0.34 nM; in assay [5], 0.11 nM. Further, in assay [1], the “Selectivity Kv1.1/Kv1.3” value is given as over 8800. In addition, the “Selectivity Kv1.6/Kv1.3” value in assay [3] is on record as over 8800.
As to `CCCC[C@@H]1NC(=O)[C@@H]2CSSC[C@H](NC(=O)[C@H](CCCNC(=N)N)NC(=O)[C@H](CCCC)NC(=O)[C@H](CC(=O)O)NC(=O)[C@H](CCCC)NC(=O)[C@@H](N)C(C)C)C(=O)N[C@@H](CO)C(=O)N[C@@H](C)C(=O)N[C@@H](CO)C(=O)N[C@@H](C(C)C)C(=O)N[C@@H](CCC(=O)O)C(=O)N[C@H]3CSSC[C@H](NC(=O)[C@H](CCCCN)NC(=O)[C@H](CCCCN)NC(=O)[C@H](CC(N)=O)NC1=O)C(=O)N[C@@H](CCCCN)C(=O)N[C@H](C(=O)N[C@@H](Cc1ccc(O)cc1)C(=O)N1CCC[C@H]1C(=O)N[C@@H](CCCNC(=N)N)C(N)=O)CSSC[C@H](NC(=O)[C@H](CCCCN)NC(=O)[C@H](CCC(N)=O)NC(=O)[C@H](CCCCN)NC3=O)C(=O)N[C@@H](CC(C)C)C(=O)N[C@@H](CCCCN)C(=O)N[C@@H](C)C(=O)N[C@@H]([C@@H](C)CC)C(=O)NCC(=O)N[C@@H](CO)C(=O)N[C@@H]([C@@H](C)CC)C(=O)N[C@@H](Cc1ccccc1)C(=O)NCC(=O)N[C@@H](CCCCN)C(=O)N2` [Compound 67] (H-V[Nle]D[Nle]RCSASVECKQKCLKAIGSIFGKC[Nle]NKKCKCYPR-NH2; disulfide 6-27, 12-32, 16-34), the IC50 is at most 1 nM in assay [6], 0.32 nM in assay [4] and 0.12 nM in assay [5].
As to `CC[C@H](C)[C@@H]1NC(=O)[C@H](C)NC(=O)[C@H](CCCCN)NC(=O)[C@H](CC(C)C)NC(=O)[C@@H]2CSSC[C@@H](C(=O)N[C@@H](Cc3ccc(O)cc3)C(=O)N3CCC[C@H]3C(=O)N[C@@H](CCCNC(=N)N)C(N)=O)NC(=O)[C@H](CCCCN)NC(=O)[C@@H]3CSSC[C@H](NC(=O)[C@H](CCC(=O)O)NC(=O)[C@H](C(C)C)NC(=O)[C@H](CO)NC(=O)[C@H](C)NC(=O)[C@H](CO)NC(=O)[C@@H](NC(=O)[C@H](CCCNC(=N)N)NC(=O)[C@H](CCSC)NC(=O)[C@H](CC(=O)O)NC(=O)[C@H](CCSC)NC(=O)[C@@H](N)CC(N)=O)CSSC[C@H](NC(=O)[C@H](CCCCN)NC(=O)CNC(=O)[C@H](Cc4ccccc4)NC(=O)[C@H]([C@@H](C)CC)NC(=O)[C@H](CO)NC(=O)CNC1=O)C(=O)N[C@@H](CCSC)C(=O)N[C@@H](CC(N)=O)C(=O)N[C@@H](CCCCN)C(=O)N[C@@H](CCCCN)C(=O)N3)C(=O)N[C@@H](CCCCN)C(=O)N[C@@H](CC(C)C)C(=O)N[C@@H](CCCCN)C(=O)N2` [Compound 32] (H-NMDMRCSASVECKLKCLKAIGSIFGKCMNKKCKCYPR-NH2; disulfide 6-27, 12-32, 16-34), the values for the IC50 in assay [6], in assay [4] and in assay [5] were at most 1 nM, 0.38 nM and 0.12 nM, respectively.
For `CCCC[C@@H]1NC(=O)[C@@H]2CSSC[C@H](NC(=O)[C@H](CCCNC(=N)N)NC(=O)[C@H](CCCC)NC(=O)[C@H](CC(=O)O)NC(=O)[C@H](CCCC)NC(=O)[C@@H](N)CO)C(=O)N[C@@H](CO)C(=O)N[C@@H](C)C(=O)N[C@@H](CO)C(=O)N[C@@H](C(C)C)C(=O)N[C@@H](CCC(=O)O)C(=O)N[C@H]3CSSC[C@H](NC(=O)[C@H](CCCCN)NC(=O)[C@H](CCCCN)NC(=O)[C@H](CC(N)=O)NC1=O)C(=O)N[C@@H](CCCCN)C(=O)N[C@H](C(=O)N[C@@H](Cc1ccc(O)cc1)C(=O)N1CCC[C@H]1C(=O)N[C@@H](CCCNC(=N)N)C(N)=O)CSSC[C@H](NC(=O)[C@H](CCCCN)NC(=O)[C@H](CCC(N)=O)NC(=O)[C@H](CCCCN)NC3=O)C(=O)N[C@@H](CC(C)C)C(=O)N[C@@H](CCCCN)C(=O)N[C@@H](C)C(=O)N[C@@H]([C@@H](C)CC)C(=O)NCC(=O)N[C@@H](CO)C(=O)N[C@@H]([C@@H](C)CC)C(=O)N[C@@H](Cc1ccccc1)C(=O)NCC(=O)N[C@@H](CCCCN)C(=O)N2` [Compound 66] (H-S[Nle]D[Nle]RCSASVECKQKCLKAIGSIFGKC[Nle]NKKCKCYPR-NH2; disulfide 6-27, 12-32, 16-34), in that order: at most 1 nM, 0.18 nM and 0.12 nM.
Take `CC[C@H](C)[C@@H]1NC(=O)[C@@H](NC(=O)[C@H](CO)NC(=O)[C@@H](N)CCCNC(=N)N)CSSC[C@@H](C(=O)O)NC(=O)[C@H]([C@@H](C)O)NC(=O)CNC(=O)[C@@H]2CSSC[C@@H]3NC(=O)[C@H](CCC(N)=O)NC(=O)[C@H](Cc4ccccc4)NC(=O)[C@H](C)NC(=O)[C@H]([C@@H](C)O)NC(=O)[C@H](CSSC[C@H](NC(=O)[C@H](Cc4ccccc4)NC(=O)[C@H](CO)NC(=O)[C@H](CC(C)C)NC(=O)[C@H](CCCNC(=N)N)NC(=O)[C@H](Cc4ccc(O)cc4)NC(=O)[C@H](CCCCN)NC(=O)[C@H](CCSC)NC(=O)[C@H](CO)NC(=O)[C@H](Cc4cnc[nH]4)NC(=O)[C@H](CCCCN)NC3=O)C(=O)N[C@@H](CCCNC(=N)N)C(=O)N[C@@H](CCCCN)C(=O)N[C@@H]([C@@H](C)O)C(=O)N2)NC(=O)[C@H](CCCNC(=N)N)NC(=O)[C@H](CO)NC(=O)[C@H](CCCCN)NC(=O)[C@@H]2CCCN2C(=O)[C@H]([C@@H](C)CC)NC(=O)[C@H]([C@@H](C)O)NC(=O)[C@H](CC(=O)O)NC1=O` [ShK, reference compound]: the IC50 in assay [2] amounted to 11 nM; in assay [3] it was 0.19 nM.

For the origin of these results see patent US11780893B2, “Kv1.3 blockers” (Zealand Pharma A/S, priority 2019, dated 2023).
